Experimental findings from US10227358B2, “Hydroxyester derivatives, a process for their preparation and pharmaceutical compositions containing them” (LES LABORATOIRES SERVIER, priority 2015, dated 2019) are described below.

Mcl-1 protein, sequence (Q07820 whole entry): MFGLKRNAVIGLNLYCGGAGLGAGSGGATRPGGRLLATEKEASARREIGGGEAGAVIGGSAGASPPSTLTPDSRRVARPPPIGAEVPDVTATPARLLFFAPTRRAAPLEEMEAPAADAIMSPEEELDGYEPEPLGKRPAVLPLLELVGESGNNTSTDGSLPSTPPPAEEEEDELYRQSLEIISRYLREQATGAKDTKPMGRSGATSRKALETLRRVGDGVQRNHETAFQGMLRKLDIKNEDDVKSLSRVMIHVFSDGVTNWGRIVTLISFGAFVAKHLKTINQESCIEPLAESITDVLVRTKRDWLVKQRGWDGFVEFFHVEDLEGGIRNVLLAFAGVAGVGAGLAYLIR

In one assay the test system is H929 multiple myeloma tumour line. Put plainly: In vitro cytotoxicity (MTT, Microculture Tetrazolium Assay). The note with it: Homo sapiens, NCI-H929; H929 cells, 48 hours exposure, cell viability. The class given is cell-based. Here is the method:
The cytotoxicity studies were carried out on the H929 multiple myeloma tumour line.
The cells are distributed onto microplates and exposed to the test compounds for 48 hours.
The cell viability is then quantified by a colorimetric assay, the Microculture Tetrazolium Assay (Cancer Res., 1987, 47, 939-942).
For the compound `CCOC(=O)OC(C)OC(=O)[C@@H](Cc1ccccc1OCc1ccnc(-c2ccccc2OC)n1)Oc1ncnc2sc(-c3ccc(F)cc3)c(-c3c(C)c(Cl)c(OCCN4CCN(C)CC4)c(Cl)c3C)c12` (stereo partly drawn) [Example 15, 1-[(ethoxycarbonyl)oxy]ethyl (2R)-2-{[5-{3,5-dichloro-2,6-dimethyl-4-[2-(4-methylpiperazin-1-yl)ethoxy]phenyl}-6-(4-fluorophenyl)thieno[2,3-d]pyrimidin-4-yl]oxy}-3-(2-{[2-(2-methoxyphenyl)pyrimidin-4-yl]methoxy}phenyl)propanoate], it took 0.068 µM to reach half-maximal inhibition (IC50).

In the next assay the target is Mcl-1 protein (UniProtKB Q07820) (Homo sapiens, UniProt Q07820). The assay is described as follows: Inhibition of Mcl-1 by the fluorescence polarisation technique. In kind it is binding. The note with it: fluorescein labelled ligand 1 nM, Mcl-1 protein 5 nM, ~2 hours at room temperature; read-out: IC50 (μM) Mcl-1 FP. Here is the method:
The relative binding potency of each compound was determined via Fluorescence Polarisation (FP). The method utilised a Fluorescein labelled ligand (Fluorescein-βAla-Ahx-A-REIGAQLRRMADDLNAQY-OH; mw 2,765) which binds to the Mcl-1 protein (such that Mcl-1 corresponds to the UniProtKB® primary accession number: Q07820) leading to an increased anisotropy measured in milli-polarisation (mP) units using a reader. The addition of a compound which binds competitively to the same site as the ligand will result in a greater proportion of unbound ligand in the system indicated by a decrease in mP units.
An 11 point serial dilution of each compound was prepared in DMSO and 2 μl transferred into flat bottomed, low binding, 384-well plate (final DMSO concentration 5%). 38 μl of buffer (10 mM 4-(2-hydroxyethyl)-1-piperazineethanesulfonic acid [HEPES], 150 mM NaCl, 0.05% Tween 20, pH 7.4), containing the Fluorescein labelled ligand (final concentration 1 nM) and Mcl-1 protein (final concentration 5 nM) was then added.
Assay plates were incubated ˜2 hours at room temperature before FP was measured on a […] Synergy2 reader (Ex. 528 nm, Em. 640 nm, Cut off 510 nm) and mP units calculated. The binding of increasing doses of test compound was expressed as a percentage reduction in mP compared to a window established between ‘5% DMSO only’ and ‘100% inhibition’ controls. 11-point dose response curves were plotted with XL-Fit software using a 4-Parameter Logistic Model (Sigmoidal Dose-Response Model) and the inhibitory concentrations that gave a 50% reduction in mP (IC50) were determined.
(Fluorescence polarisation rises when a labelled molecule tumbles more slowly, as on binding a larger partner.)
As to `COC(=O)OC(C)OC(=O)C(Cc1ccccc1OCc1ccnc(-c2ccccc2OC)n1)Oc1ncnc2sc(-c3ccc(F)cc3)c(-c3ccc(OCCN4CCN(C)CC4)c(Cl)c3C)c12` [Example 1, 1-[(methoxycarbonyl)oxy]ethyl (2R)-2-{[(5Sa)-5-{3-chloro-2-methyl-4-[2-(4-methylpiperazin-1-yl)ethoxy]phenyl}-6-(4-fluorophenyl)thieno[2,3-d]pyrimidin-4-yl]oxy}-3-(2-{[2-(2-methoxyphenyl)pyrimidin-4-yl]methoxy}phenyl)propanoate], the IC50 (as a rule, the concentration needed to halve the response being measured) was 0.037 µM.

`CCOC(=O)OC(C)OC(=O)C(Cc1ccccc1OCc1ccnc(-c2ccccc2OC)n1)Oc1ncnc2sc(-c3ccc(F)cc3)c(-c3ccc(OCCN4CCN(C)CC4)c(Cl)c3C)c12` [Example 2, 1-[(ethoxycarbonyl)oxy]ethyl (2R)-2-{[(5Sa)-5-{3-chloro-2-methyl-4-[2-(4-methylpiperazin-1-yl)ethoxy]phenyl}-6-(4-fluorophenyl)thieno[2,3-d]pyrimidin-4-yl]oxy}-3-(2-{[2-(2-methoxyphenyl)pyrimidin-4-yl]methoxy}phenyl)propanoate]: the half-maximal inhibitory concentration (IC50) turned out to be 0.361 µM.

With `COc1ccccc1-c1nccc(COc2ccccc2CC(Oc2ncnc3sc(-c4ccc(F)cc4)c(-c4ccc(OCCN5CCN(C)CC5)c(Cl)c4C)c23)C(=O)OC(C)OC(=O)OC(C)C)n1` [Example 3, 1-{[(propan-2-yloxy)carbonyl]oxy}ethyl (2R)-2-{[(5Sa)-5-{3-chloro-2-methyl-4-[2-(4-methylpiperazin-1-yl)ethoxy]phenyl}-6-(4-fluorophenyl)thieno[2,3-d]pyrimidin-4-yl]oxy}-3-(2-{[2-(2-methoxyphenyl)pyrimidin-4-yl]methoxy}phenyl)propanoate], the IC50 amounted to 0.292 µM.

Consider `COc1ccccc1-c1nccc(COc2ccccc2CC(Oc2ncnc3sc(-c4ccc(F)cc4)c(-c4ccc(OCCN5CCN(C)CC5)c(Cl)c4C)c23)C(=O)OC(C)OC(=O)OC(C)(C)C)n1` [Example 4, 1-[(tert-butoxycarbonyl)oxy]ethyl (2R)-2-{[(5Sa)-5-{3-chloro-2-methyl-4-[2-(4-methylpiperazin-1-yl)ethoxy]phenyl}-6-(4-fluorophenyl)thieno[2,3-d]pyrimidin-4-yl]oxy}-3-(2-{[2-(2-methoxyphenyl)pyrimidin-4-yl]methoxy}phenyl)propanoate], for which the IC50 amounted to 0.959 µM.

Regarding `COc1ccccc1-c1nccc(COc2ccccc2CC(Oc2ncnc3sc(-c4ccc(F)cc4)c(-c4ccc(OCCN5CCN(C)CC5)c(Cl)c4C)c23)C(=O)OC(C)OC(=O)OC2CCCC2)n1` [Example 5, 1-{[(cyclopentyloxy)carbonyl]oxy}ethyl (2R)-2-{[(5Sa)-5-{3-chloro-2-methyl-4-[2-(4-methylpiperazin-1-yl)ethoxy]phenyl}-6-(4-fluorophenyl)thieno[2,3-d]pyrimidin-4-yl]oxy}-3-(2-{[2-(2-methoxyphenyl)pyrimidin-4-yl]methoxy}phenyl)propanoate], the IC50 was found to be 0.37 µM.

For the compound `CCCCCCCCOC(=O)OC(C)OC(=O)C(Cc1ccccc1OCc1ccnc(-c2ccccc2OC)n1)Oc1ncnc2sc(-c3ccc(F)cc3)c(-c3ccc(OCCN4CCN(C)CC4)c(Cl)c3C)c12` [Example 6, 1-{[(octyloxy)carbonyl]oxy}ethyl (2R)-2-{[(5Sa)-5-{3-chloro-2-methyl-4-[2-(4-methylpiperazin-1-yl)ethoxy]phenyl}-6-(4-fluorophenyl)thieno[2,3-d]pyrimidin-4-yl]oxy}-3-(2-{[2-(2-methoxyphenyl)pyrimidin-4-yl]methoxy}phenyl)propanoate], the IC50 turned out to be 0.51 µM.

As for `COc1ccccc1-c1nccc(COc2ccccc2CC(Oc2ncnc3sc(-c4ccc(F)cc4)c(-c4ccc(OCCN5CCN(C)CC5)c(Cl)c4C)c23)C(=O)OC(C)OC(=O)N(C)C)n1` [Example 7, 1-[(dimethylcarbamoyl)oxy]ethyl (2R)-2-{[(5Sa)-5-{3-chloro-2-methyl-4-[2-(4-methylpiperazin-1-yl)ethoxy]phenyl}-6-(4-fluorophenyl)thieno[2,3-d]pyrimidin-4-yl]oxy}-3-(2-{[2-(2-methoxyphenyl)pyrimidin-4-yl]methoxy}phenyl)propanoate], the IC50 is 0.438 µM.

As to `CCN(CC)C(=O)OC(C)OC(=O)C(Cc1ccccc1OCc1ccnc(-c2ccccc2OC)n1)Oc1ncnc2sc(-c3ccc(F)cc3)c(-c3ccc(OCCN4CCN(C)CC4)c(Cl)c3C)c12` [Example 8, 1-[(diethylcarbamoyl)oxy]ethyl (2R)-2-{[(5Sa)-5-{3-chloro-2-methyl-4-[2-(4-methylpiperazin-1-yl)ethoxy]phenyl}-6-(4-fluorophenyl)thieno[2,3-d]pyrimidin-4-yl]oxy}-3-(2-{[2-(2-methoxyphenyl)pyrimidin-4-yl]methoxy}phenyl)propanoate], the IC50 is 1.41 µM.

For `COc1ccccc1-c1nccc(COc2ccccc2CC(Oc2ncnc3sc(-c4ccc(F)cc4)c(-c4ccc(OCCN5CCN(C)CC5)c(Cl)c4C)c23)C(=O)OC(C)OC(=O)N2CCOCC2)n1` [Example 9, 1-{[(2R)-2-{[(5Sa)-5-{3-chloro-2-methyl-4-[2-(4-methylpiperazin-1-yl)ethoxy]phenyl}-6-(4-fluorophenyl)thieno[2,3-d]pyrimidin-4-yl]oxy}-3-(2-{[2-(2-methoxyphenyl)pyrimidin-4-yl]methoxy}phenyl)propanoyl]oxy}ethyl morpholine-4-carboxylate], the IC50 amounted to 0.52 µM.

As for `COCCNC(=O)OC(C)OC(=O)C(Cc1ccccc1OCc1ccnc(-c2ccccc2OC)n1)Oc1ncnc2sc(-c3ccc(F)cc3)c(-c3ccc(OCCN4CCN(C)CC4)c(Cl)c3C)c12` [Example 10, 1-{[(2-methoxyethyl)carbamoyl]oxy}ethyl (2R)-2-{[(5Sa)-5-{3-chloro-2-methyl-4-[2-(4-methylpiperazin-1-yl)ethoxy]phenyl}-6-(4-fluorophenyl)thieno[2,3-d]pyrimidin-4-yl]oxy}-3-(2-{[2-(2-methoxyphenyl)pyrimidin-4-yl]methoxy}phenyl) propanoate], the IC50 stood at 0.147 µM.

With `COCCN(CCOC)C(=O)OC(C)OC(=O)C(Cc1ccccc1OCc1ccnc(-c2ccccc2OC)n1)Oc1ncnc2sc(-c3ccc(F)cc3)c(-c3ccc(OCCN4CCN(C)CC4)c(Cl)c3C)c12` [Example 11, 1-{[bis(2-methoxyethyl)carbamoyl]oxy}ethyl (2R)-2-{[(5Sa)-5-{3-chloro-2-methyl-4-[2-(4-methylpiperazin-1-yl)ethoxy]phenyl}-6-(4-fluorophenyl)thieno[2,3-d]pyrimidin-4-yl]oxy}-3-(2-{[2-(2-methoxyphenyl)pyrimidin-4-yl]methoxy}phenyl)propanoate], the IC50 was found to be 0.551 µM.

With `COC(=O)CN(C)C(=O)OC(C)OC(=O)C(Cc1ccccc1OCc1ccnc(-c2ccccc2OC)n1)Oc1ncnc2sc(-c3ccc(F)cc3)c(-c3ccc(OCCN4CCN(C)CC4)c(Cl)c3C)c12` [Example 12, 1-{[(2-methoxy-2-oxoethyl)(methyl)carbamoyl]oxy}ethyl (2R)-2-{[(5Sa)-5-{3-chloro-2-methyl-4-[2-(4-methylpiperazin-1-yl)ethoxy]phenyl}-6-(4-fluorophenyl)thieno[2,3-d]pyrimidin-4-yl]oxy}-3-(2-{[2-(2-methoxyphenyl)pyrimidin-4-yl]methoxy}phenyl)propanoate], the IC50 amounted to 0.318 µM.

In the case of `COc1ccccc1-c1nccc(COc2ccccc2CC(Oc2ncnc3sc(-c4ccc(F)cc4)c(-c4ccc(OCCN5CCN(C)CC5)c(Cl)c4C)c23)C(=O)OCOP(=O)(O)O)n1` [Example 13, (phosphonooxy)methyl (2R)-2-{[(5Sa)-5-{3-chloro-2-methyl-4-[2-(4-methylpiperazin-1-yl)ethoxy]phenyl}-6-(4-fluorophenyl)thieno[2,3-d]pyrimidin-4-yl]oxy}-3-(2-{[2-(2-methoxyphenyl)pyrimidin-4-yl]methoxy}phenyl)propanoate], the IC50 was 0.0032 µM.

Turning to `CCOC(=O)OC(C)OC(=O)[C@@H](Cc1ccccc1OCc1ccnc(-c2ccccc2OC)n1)Oc1ncnc2sc(-c3ccc(F)cc3)c(-c3c(C)c(Cl)c(OCCN4CCN(C)CC4)c(Cl)c3C)c12` (stereo partly drawn) [Example 15, 1-[(ethoxycarbonyl)oxy]ethyl (2R)-2-{[5-{3,5-dichloro-2,6-dimethyl-4-[2-(4-methylpiperazin-1-yl)ethoxy]phenyl}-6-(4-fluorophenyl)thieno[2,3-d]pyrimidin-4-yl]oxy}-3-(2-{[2-(2-methoxyphenyl)pyrimidin-4-yl]methoxy}phenyl)propanoate], the IC50 stood at 0.453 µM.
